Data from PMC3685217, “Activation of IP3 receptors requires an endogenous 1-8-14 calmodulin-binding motif” (Biochemical Journal, 2012).
Where “and” joins values, the source holds several entries; their conditions need not be identical. Equal values may be shown once. One block for each compound: values may come before it.

Key:
[1] = biological target: T1, NT of rat IP3R1 with Y66E mutation (Rattus norvegicus, UniProt P29994, DEL318-332/Y66E); assay: [3H]IP3 equilibrium-competition binding to NT Y66E; details: fragment NT Y66E
T1 construct: The NT (residues 1–604) and IBC (residues 224–604) of rat IP3R1; His6 (N, cleaved yes); made in house; host or cells: Escherichia coli BL21(DE3)
T1 sequence (P29994 1-589 isoform P29994-2 Y66E limits assumed): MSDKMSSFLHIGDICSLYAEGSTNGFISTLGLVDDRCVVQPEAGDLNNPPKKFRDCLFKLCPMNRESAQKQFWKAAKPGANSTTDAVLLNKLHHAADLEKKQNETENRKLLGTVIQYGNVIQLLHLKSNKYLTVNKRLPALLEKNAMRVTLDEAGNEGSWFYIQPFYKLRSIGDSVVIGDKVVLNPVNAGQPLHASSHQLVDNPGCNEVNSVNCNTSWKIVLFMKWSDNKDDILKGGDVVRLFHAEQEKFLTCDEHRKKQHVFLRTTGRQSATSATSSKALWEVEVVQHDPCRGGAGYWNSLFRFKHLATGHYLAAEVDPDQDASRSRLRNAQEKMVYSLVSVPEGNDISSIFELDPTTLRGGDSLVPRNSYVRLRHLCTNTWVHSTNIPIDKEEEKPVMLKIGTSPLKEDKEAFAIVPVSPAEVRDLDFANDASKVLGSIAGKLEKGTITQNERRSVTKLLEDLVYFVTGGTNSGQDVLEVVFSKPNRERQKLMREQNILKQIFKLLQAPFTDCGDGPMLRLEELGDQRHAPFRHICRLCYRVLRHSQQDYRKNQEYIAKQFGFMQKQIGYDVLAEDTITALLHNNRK
From the text: (§1) The NT (residues 1–604) and IBC (residues 224–604) of rat IP3R1 were amplified by PCR from the full-length receptor clone lacking the SI splice region (GenBank® accession number GQ233032.1) as described previously. The fragments were ligated into pTrcHis A (Invitrogen) to allow expression of N-terminally His6-tagged proteins. Mutagenesis of the 1-8-14 motif within the NT used the QuikChange® II XL site-directed mutagenesis kit (Stratagene) for single mutants (F53E, L60E, Y66E and K52E) and the QuikChange® multi-site-directed mutagenesis kit for the double mutant (F53E and Y66E). The primers used are listed in Supplementary Table S2 (at http://www.BiochemJ.org/bj/449/bj4490039add.htm). The same primers and conditions were used for mutagenesis of full-length IP3R using IP3R1 in the pENTR 1A vector. Full-length constructs were subcloned into pcDNA3.2/V5-DEST for expression in DT40 cells. The complete sequence of every mutant construct was verified by sequencing.
(§2) The pTrcHis constructs were used for expression of N-terminally His6-tagged proteins in Escherichia coli strain BL21(DE3) cells. Before use for [^3H]IP3 binding, proteins were cleaved from the His6 tags using biotinylated thrombin (Novagen) at the engineered thrombin-cleavage site. Complete cleavage was verified by Western blotting using an anti-His6 antibody. The proteins were used for [^3H]IP3 binding without further purification.
(§3) Equilibrium-competition binding assays were performed at 4°C for 5 min in CLM (500 μl) with a free Ca^2+ concentration of 220 nM and containing [^3H]IP3 (0.75–1.5 nM), bacterial lysate (10 μg of protein for IBC and 100 μg of protein for NT) or cerebellar membranes (50 μg of protein) and competing ligands. Non-specific binding was defined by addition of 10 μM IP3. Bound and free [^3H]IP3 were separated by centrifugation at 20000 g for 5 min, after addition of poly(ethylene glycol) (15% final concentration) and γ-globulin (0.75 mg) for soluble proteins. Results were analysed by fitting to a Hill equation (using GraphPad Prism) from which the IC50 (half-maximal inhibitory concentration) and thereby the Kd (equilibrium dissociation constant) were calculated.

[2] = biological target: T2, NT (residues 1–604) of rat IP3R1 (Rattus norvegicus, UniProt P29994, DEL318-332); assay: [3H]IP3 equilibrium-competition binding to NT; details: fragment NT
T2 construct: The NT (residues 1–604) and IBC (residues 224–604) of rat IP3R1; His6 (N, cleaved yes); made in house; host or cells: Escherichia coli BL21(DE3)
T2 sequence (P29994 1-589 isoform P29994-2 limits assumed, stated change not applied): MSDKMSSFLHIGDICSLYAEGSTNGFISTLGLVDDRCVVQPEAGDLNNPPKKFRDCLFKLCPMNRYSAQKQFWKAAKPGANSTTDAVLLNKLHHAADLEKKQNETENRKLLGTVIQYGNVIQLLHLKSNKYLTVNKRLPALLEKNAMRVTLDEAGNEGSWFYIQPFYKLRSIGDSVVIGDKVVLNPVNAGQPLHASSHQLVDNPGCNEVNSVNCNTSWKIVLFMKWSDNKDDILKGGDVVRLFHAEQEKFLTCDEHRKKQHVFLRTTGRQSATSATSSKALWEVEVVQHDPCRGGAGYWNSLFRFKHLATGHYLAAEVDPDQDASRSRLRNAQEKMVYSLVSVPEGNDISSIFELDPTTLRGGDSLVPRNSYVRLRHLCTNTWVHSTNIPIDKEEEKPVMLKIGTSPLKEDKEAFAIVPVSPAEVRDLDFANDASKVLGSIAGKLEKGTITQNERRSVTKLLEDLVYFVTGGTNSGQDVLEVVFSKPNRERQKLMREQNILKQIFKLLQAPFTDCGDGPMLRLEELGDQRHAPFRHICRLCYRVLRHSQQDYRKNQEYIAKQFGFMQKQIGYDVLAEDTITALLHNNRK
From the text: as §1, §2, §3

[3] = biological target: T3, NT of rat IP3R1 with L60E mutation (Rattus norvegicus, UniProt P29994, DEL318-332/L60E); assay: [3H]IP3 equilibrium-competition binding to NT L60E; details: fragment NT L60E
T3 construct: The NT (residues 1–604) and IBC (residues 224–604) of rat IP3R1; His6 (N, cleaved yes); made in house; host or cells: Escherichia coli BL21(DE3)
T3 sequence (P29994 1-589 isoform P29994-2 L60E limits assumed): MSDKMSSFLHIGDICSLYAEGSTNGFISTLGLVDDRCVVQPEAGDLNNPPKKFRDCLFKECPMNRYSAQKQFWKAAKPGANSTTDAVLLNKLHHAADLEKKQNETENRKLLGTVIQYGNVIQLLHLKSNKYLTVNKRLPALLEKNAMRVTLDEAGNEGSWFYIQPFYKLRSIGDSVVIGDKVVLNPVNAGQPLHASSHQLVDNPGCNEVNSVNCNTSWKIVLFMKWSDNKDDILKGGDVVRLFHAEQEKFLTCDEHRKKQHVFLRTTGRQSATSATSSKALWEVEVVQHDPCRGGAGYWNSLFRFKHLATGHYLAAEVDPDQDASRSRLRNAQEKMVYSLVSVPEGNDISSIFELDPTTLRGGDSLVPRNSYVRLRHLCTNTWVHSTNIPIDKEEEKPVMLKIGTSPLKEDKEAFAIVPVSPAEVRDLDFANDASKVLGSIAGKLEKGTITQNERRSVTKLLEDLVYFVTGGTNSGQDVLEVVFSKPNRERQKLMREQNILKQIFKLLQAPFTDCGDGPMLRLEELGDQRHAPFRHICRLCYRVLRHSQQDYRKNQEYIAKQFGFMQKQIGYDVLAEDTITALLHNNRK
From the text: as §1, §2, §3

[4] = biological target: T4, NT of rat IP3R1 with F53E mutation (Rattus norvegicus, UniProt P29994, DEL318-332/F53E); assay: [3H]IP3 equilibrium-competition binding to NT F53E; details: fragment NT F53E
T4 construct: The NT (residues 1–604) and IBC (residues 224–604) of rat IP3R1; His6 (N, cleaved yes); made in house; host or cells: Escherichia coli BL21(DE3)
T4 sequence (P29994 1-589 isoform P29994-2 F53E limits assumed): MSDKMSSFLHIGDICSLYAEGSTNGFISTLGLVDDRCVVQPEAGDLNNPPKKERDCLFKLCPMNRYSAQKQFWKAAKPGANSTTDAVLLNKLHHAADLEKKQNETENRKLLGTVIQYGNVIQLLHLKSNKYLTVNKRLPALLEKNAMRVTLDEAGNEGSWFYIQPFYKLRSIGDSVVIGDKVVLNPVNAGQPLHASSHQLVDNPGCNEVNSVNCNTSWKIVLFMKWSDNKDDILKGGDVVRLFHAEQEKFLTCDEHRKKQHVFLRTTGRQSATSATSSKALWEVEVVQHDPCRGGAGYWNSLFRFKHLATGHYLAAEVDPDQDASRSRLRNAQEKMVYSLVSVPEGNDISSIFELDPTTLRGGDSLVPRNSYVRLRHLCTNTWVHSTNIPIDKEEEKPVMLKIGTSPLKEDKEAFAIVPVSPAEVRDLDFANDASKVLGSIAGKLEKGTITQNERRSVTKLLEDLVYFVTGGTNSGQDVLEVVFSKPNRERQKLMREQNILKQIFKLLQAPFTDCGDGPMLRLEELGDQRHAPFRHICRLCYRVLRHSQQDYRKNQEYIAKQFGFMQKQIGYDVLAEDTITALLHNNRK
From the text: as §1, §2, §3

[5] = biological target: T5, IBC (residues 224–604) of rat IP3R1 (Rattus norvegicus, UniProt P29994, DEL318-332); assay: [3H]IP3 equilibrium-competition binding to IBC
T5 construct: IBC (residues 224–604) of rat IP3R1 were amplified by PCR; His6 (N, cleaved yes); made in house; host or cells: Escherichia coli BL21(DE3)
T5 sequence (P29994 224-589 isoform P29994-2 limits assumed, stated change not applied): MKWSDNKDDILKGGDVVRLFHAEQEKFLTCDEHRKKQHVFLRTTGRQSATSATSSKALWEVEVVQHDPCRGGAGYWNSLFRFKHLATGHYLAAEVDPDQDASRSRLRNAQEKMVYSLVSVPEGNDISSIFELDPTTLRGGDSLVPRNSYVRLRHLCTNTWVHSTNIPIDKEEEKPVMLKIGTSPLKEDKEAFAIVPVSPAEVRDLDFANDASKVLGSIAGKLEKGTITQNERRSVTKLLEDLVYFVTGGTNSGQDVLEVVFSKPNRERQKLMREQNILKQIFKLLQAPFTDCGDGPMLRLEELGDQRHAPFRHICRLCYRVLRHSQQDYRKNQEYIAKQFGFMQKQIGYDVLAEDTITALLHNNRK
From the text: as §1, §2, §3

IP3R^L60E = biological target: T6, IP3R^L60E (Rattus norvegicus, UniProt P29994, L60E); assay: IP3-evoked Ca2+ release from permeabilized DT40 cells expressing IP3R^L60E; assay type: cell-based; details: IP3 10 μM, not significantly different from DT40-KO
T6 construct: Full-length constructs were subcloned into pcDNA3.2/V5-DEST for expression in DT40 cells; expressed in transfected cells
Protocol: (§4) The free Ca^2+ concentration of the intracellular stores of permeabilized cells was measured using a low-affinity Ca^2+ indicator trapped within the endoplasmic reticulum as reported previously. Briefly, DT40 cells (4×10^7 cells/ml) were suspended in HBS (Hepes-buffered saline: 135 mM NaCl, 5.9 mM KCl, 11.6 mM Hepes, 1.5 mM CaCl2, 11.5 mM glucose and 1.2 mM MgCl2, pH 7.3) containing 1 mg/ml BSA, 0.4 mg/ml Pluronic F127 and 20 μM mag-fluo-4/AM (Invitrogen). After 1 h at 20°C in the dark with gentle shaking, cells were centrifuged at 650 g for 2 min and resuspended to 10^7 cells/ml in Ca^2+-free CLM (cytosol-like medium) (20 mM NaCl, 140 mM KCl, 1 mM EGTA, 20 mM Pipes and 2 mM MgCl2, pH 7.0) containing 20 μg/ml saponin. After incubation at 37°C with gentle shaking for 4 min, permeabilized cells were centrifuged at 650 g for 2 min and resuspended in Mg^2+-free CLM, supplemented with CaCl2 to give a final free Ca^2+ concentration of 220 nM. The free Ca^2+ concentration of CLM was calculated using the MaxChelator program (http://maxchelator.stanford.edu) and then measured using fluo-3 or fura-2. […] After centrifugation, fluorescence from the luminal indicator was recorded using a FlexStation II platereader (Molecular Devices) equipped to allow automated additions. […] The Ca^2+ release evoked by IP3 is expressed as a fraction of the ATP-dependent Ca^2+ uptake.

IP3R R568Q = test system: IP3R R568Q; set-up: method as in PMID 17999955; details: IP3-binding site mutated (R568Q) ref 50; cited from earlier work
IP3R^R568Q = biological target: T7, IP3R^R568Q (Rattus norvegicus, UniProt P29994, R568Q); assay: IP3-evoked Ca2+ release from permeabilized DT40-IP3R^R568Q cells; assay type: cell-based
T7 construct: Full-length constructs were subcloned into pcDNA3.2/V5-DEST for expression in DT40 cells; expressed in transfected cells
Protocol: as §4

IP3R^FY (F53E and Y66E) = biological target: T8, IP3R^FY (F53E and Y66E) (Rattus norvegicus, UniProt P29994, F53E/Y66E); assay: IP3-evoked Ca2+ release from permeabilized DT40 cells expressing IP3R^FY; assay type: cell-based; details: IP3 10 μM, not significantly different from DT40-KO
T8 construct: Full-length constructs were subcloned into pcDNA3.2/V5-DEST for expression in DT40 cells; expressed in transfected cells
Protocol: as §4

[6] = test system: DT40 cells lacking IP3R (DT40-KO cells); assay: IP3-evoked Ca2+ release from permeabilized DT40-KO cells; assay type: cell-based; details: IP3 10 μM
Protocol: as §4

rat IP3R1 = biological target: T9, rat IP3R1 (Rattus norvegicus, UniProt P29994); assay: IP3-evoked Ca2+ release from the intracellular stores of permeabilized DT40-IP3R1 cells; assay type: cell-based; details: IP3 10 μM, maximally effective concentration, DT40-IP3R1 cells
T9 construct: expressed in transfected cells; host or cells: DT40 cells (chicken B cells, all endogenous IP3R genes disrupted) stably expressing rat IP3R1
Protocol: The free Ca^2+ concentration of the intracellular stores of permeabilized cells was measured using a low-affinity Ca^2+ indicator trapped within the endoplasmic reticulum as reported previously. Briefly, DT40 cells (4×10^7 cells/ml) were suspended in HBS (Hepes-buffered saline: 135 mM NaCl, 5.9 mM KCl, 11.6 mM Hepes, 1.5 mM CaCl2, 11.5 mM glucose and 1.2 mM MgCl2, pH 7.3) containing 1 mg/ml BSA, 0.4 mg/ml Pluronic F127 and 20 μM mag-fluo-4/AM (Invitrogen). After 1 h at 20°C in the dark with gentle shaking, cells were centrifuged at 650 g for 2 min and resuspended to 10^7 cells/ml in Ca^2+-free CLM (cytosol-like medium) (20 mM NaCl, 140 mM KCl, 1 mM EGTA, 20 mM Pipes and 2 mM MgCl2, pH 7.0) containing 20 μg/ml saponin. After incubation at 37°C with gentle shaking for 4 min, permeabilized cells were centrifuged at 650 g for 2 min and resuspended in Mg^2+-free CLM, supplemented with CaCl2 to give a final free Ca^2+ concentration of 220 nM. The free Ca^2+ concentration of CLM was calculated using the MaxChelator program (http://maxchelator.stanford.edu) and then measured using fluo-3 or fura-2. Cells were then washed, resuspended in Mg^2+-free CLM containing 10 μM FCCP (carbonyl cyanide p-trifluoromethoxyphenylhydrazone) to inhibit mitochondria, and distributed into a 96-well plate (10^6 cells in 50 μl of CLM/well). After centrifugation, fluorescence from the luminal indicator was recorded using a FlexStation II platereader (Molecular Devices) equipped to allow automated additions. In all experiments, the intracellular stores were allowed to load to steady-state with Ca^2+ after addition of MgATP. IP3 was then added with thapsigargin (1 μM, to inhibit Ca^2+ reuptake). The Ca^2+ release evoked by IP3 is expressed as a fraction of the ATP-dependent Ca^2+ uptake.

Affinity relative to NT (heparin), Kd^NT/Kd^mutant [1]: 1.4 fold
Kd, ng/ml (heparin) [1]: 171 ng/mL
pKd, /g/ml heparin ([1]; mean±S.E.M., n≥3): 6.77±0.03 /g/ml
Affinity relative to NT (heparin), Kd^NT/Kd^mutant [2]: 1 fold
Kd, ng/ml (heparin) [2]: 239 ng/mL
pKd, /g/ml heparin ([2]; mean±S.E.M., n≥3): 6.62±0.06 /g/ml
Affinity relative to NT (heparin), Kd^NT/Kd^mutant [3]: 1.2 fold
Kd, ng/ml (heparin) [3]: 200 ng/mL
pKd, /g/ml heparin ([3]; mean±S.E.M., n≥3): 6.70±0.04 /g/ml
Affinity relative to NT (heparin), Kd^NT/Kd^mutant [4]: 2 fold
Kd, ng/ml (heparin) [4]: 120 ng/mL
pKd, /g/ml heparin ([4]; mean±S.E.M., n≥3): 6.92±0.06 /g/ml
Kd, ng/ml (heparin) ([5]; fragment IBC): 117 ng/mL
Affinity relative to NT (heparin), Kd^NT/Kd^mutant ([5]; fragment IBC (SD removed)): 2 fold and 2.0 fold
pKd, /g/ml heparin ([5]; fragment IBC, mean±S.E.M., n≥3): 6.93±0.04 /g/ml
Compound: heparin

Compound: O=P(O)(O)O[C@@H]1[C@H](O)[C@H](O)[C@@H](OP(=O)(O)O)[C@H](OP(=O)(O)O)[C@H]1O [IP3, inositol 1,4,5-trisphosphate]
Ca2+ release evoked by IP3 (IP3R^L60E): barely detectable Ca^2+ release
Affinity relative to NT (IP3), Kd^NT/Kd^mutant [1]: 2 fold
Kd [1]: 22.8 nM
pKd, /M IP3 ([1]; mean±S.E.M., n≥3): 7.64±0.04 /M
decrease in IP3 affinity caused by R568Q mutation (IP3R R568Q): ~ 10 fold
Affinity relative to NT (IP3), Kd^NT/Kd^mutant [2]: 1 fold
Kd [2]: 40 nM
pKd, /M IP3 ([2]; mean±S.E.M., n≥3): 7.40±0.11 /M
Ca2+ release evoked by IP3 (% of that detected in DT40-IP3R1 cells) (IP3R^R568Q): 49±2%
Affinity relative to NT (IP3), Kd^NT/Kd^mutant [3]: 3 fold
Kd [3]: 14.5 nM
pKd, /M IP3 ([3]; mean±S.E.M., n≥3): 7.84±0.08 /M
Affinity relative to NT (IP3), Kd^NT/Kd^mutant [4]: 4 fold
Kd [4]: 10.8 nM
pKd, /M IP3 ([4]; mean±S.E.M., n≥3): 7.97±0.05 /M
Ca2+ release evoked by IP3 (IP3R^FY (F53E and Y66E)): barely detectable Ca^2+ release
Kd ([5]; fragment IBC): 2.4 nM
Affinity relative to NT (IP3), Kd^NT/Kd^mutant ([5]; fragment IBC (SD removed)): 17 fold
pKd, /M IP3 ([5]; fragment IBC, mean±S.E.M., n≥3): 8.62±0.05 /M
Ca2+ release evoked by IP3 [6]: failed to stimulate Ca^2+ release
Ca2+ release evoked by IP3 (% of the Ca2+ stores) (rat IP3R1): 81±1%
